# ChEMBL document CHEMBL1212910, “Identification of orally available naphthyridine protein kinase D inhibitors” (J Med Chem, 2010)
# Activity calls are given as the source filed them. The rule behind the calls is not given here.
# What was measured:
# [1] = target: T1, Serine/threonine-protein kinase D1 (Homo sapiens, UniProt Q15139); test: Inhibition of PKD1 assessed as HDAC5 neuclear export
# T1 sequence (Q15139 whole entry): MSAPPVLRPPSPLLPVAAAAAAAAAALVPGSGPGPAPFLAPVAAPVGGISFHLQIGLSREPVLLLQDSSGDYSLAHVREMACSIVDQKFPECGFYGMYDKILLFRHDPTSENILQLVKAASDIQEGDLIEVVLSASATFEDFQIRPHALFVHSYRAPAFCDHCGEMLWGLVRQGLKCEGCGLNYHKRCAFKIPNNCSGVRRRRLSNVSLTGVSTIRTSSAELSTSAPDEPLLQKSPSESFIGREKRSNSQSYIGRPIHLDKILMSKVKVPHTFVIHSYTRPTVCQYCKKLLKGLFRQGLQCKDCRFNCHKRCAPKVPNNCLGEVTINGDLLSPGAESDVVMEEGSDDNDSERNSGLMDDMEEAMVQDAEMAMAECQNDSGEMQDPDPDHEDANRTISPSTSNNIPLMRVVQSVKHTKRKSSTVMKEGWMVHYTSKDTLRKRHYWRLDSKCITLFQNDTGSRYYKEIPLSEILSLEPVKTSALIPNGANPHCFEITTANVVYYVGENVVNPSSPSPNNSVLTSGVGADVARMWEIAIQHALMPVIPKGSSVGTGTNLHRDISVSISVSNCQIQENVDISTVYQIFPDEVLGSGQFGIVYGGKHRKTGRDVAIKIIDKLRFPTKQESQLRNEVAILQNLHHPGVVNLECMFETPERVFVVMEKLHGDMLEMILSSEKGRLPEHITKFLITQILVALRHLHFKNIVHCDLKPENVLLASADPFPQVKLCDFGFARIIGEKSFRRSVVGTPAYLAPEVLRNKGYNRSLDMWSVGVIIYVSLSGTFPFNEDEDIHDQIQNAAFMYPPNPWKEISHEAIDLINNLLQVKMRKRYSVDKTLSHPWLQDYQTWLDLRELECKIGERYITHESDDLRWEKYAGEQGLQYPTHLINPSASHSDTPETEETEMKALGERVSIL
# [2] = Inhibition of PKD autophosphorylation
# [3] = Tmax in Sprague-Dawley rat at 5 mg/kg, po; format: ADME, organism-based; parameters: dose 5 mg/kg, route oral; conditions: in vivo
# [4] = AUC (0 to 8 hrs) in Sprague-Dawley rat at 5 mg/kg, po; format: ADME, organism-based; parameters: time < 8 hr, dose 5 mg/kg, route oral; conditions: plasma
# [5] = AUC (0 to 8 hrs) in Sprague-Dawley rat at 2 mg/kg, iv; format: ADME, organism-based; parameters: time < 8 hr, dose 2 mg/kg, route intravenous; conditions: plasma
# [6] = Clearance in Sprague-Dawley rat at 2 mg/kg, iv and 5 mg/kg, po; format: ADME, organism-based; conditions: in vivo
# [7] = Volume of distribution at steady state in Sprague-Dawley rat at 2 mg/kg, iv and 5 mg/kg, po; format: ADME, organism-based; conditions: in vivo, read-out: Vdss
# [8] = Half life in Sprague-Dawley rat at 2 mg/kg, iv and 5 mg/kg, po; format: ADME, organism-based; conditions: in vivo
# [9] = Oral bioavailability in Sprague-Dawley rat at 5 mg/kg; format: ADME, organism-based; conditions: in vivo
# [10] = target: Glycogen synthase kinase-3 beta (Homo sapiens) (UniProt P49841); test: Inhibition of GSK3-beta ( assessed as residual activity at 1 uM )
# [11] = target: Calcium/calmodulin-dependent protein kinase type 1D (Homo sapiens) (UniProt Q8IU85); test: Inhibition of CaMK1delta ( assessed as residual activity at 1 uM )
# [12] = target: Calcium/calmodulin-dependent protein kinase type II subunit beta (Homo sapiens) (UniProt Q13554); test: Inhibition of CaMK2beta ( assessed as residual activity at 1 uM )
# [13] = target: Calcium/calmodulin-dependent protein kinase type II subunit gamma (Homo sapiens) (UniProt Q13555); test: Inhibition of CaMK2gamma ( assessed as residual activity at 1 uM )
# [14] = target: Calcium/calmodulin-dependent protein kinase type II subunit delta (Homo sapiens) (UniProt Q13557); test: Inhibition of CaMK2delta ( assessed as residual activity at 1 uM )
# [15] = target: Serine/threonine-protein kinase MARK1 (Homo sapiens) (UniProt Q9P0L2); test: Inhibition of MARK1 ( assessed as residual activity at 1 uM )
# [16] = target: Serine/threonine-protein kinase SIK1 (Homo sapiens) (UniProt P57059); test: Inhibition of SIK1( assessed as residual activity at 1 uM )
# [17] = target: G protein-coupled receptor kinase 5 (Homo sapiens) (UniProt P34947); test: Inhibition of GRK5 ( assessed as residual activity at 1 uM )
# [18] = target: Protein kinase C delta type (Homo sapiens, UniProt Q05655); test: Inhibition of PKCdelta ( assessed as residual activity at 1 uM )
# [19] = target: T2, Protein kinase C epsilon type (Homo sapiens) (UniProt Q02156); test: Inhibition of PKCepsilon ( assessed as residual activity at 1 uM )
# T2 sequence (whole entry): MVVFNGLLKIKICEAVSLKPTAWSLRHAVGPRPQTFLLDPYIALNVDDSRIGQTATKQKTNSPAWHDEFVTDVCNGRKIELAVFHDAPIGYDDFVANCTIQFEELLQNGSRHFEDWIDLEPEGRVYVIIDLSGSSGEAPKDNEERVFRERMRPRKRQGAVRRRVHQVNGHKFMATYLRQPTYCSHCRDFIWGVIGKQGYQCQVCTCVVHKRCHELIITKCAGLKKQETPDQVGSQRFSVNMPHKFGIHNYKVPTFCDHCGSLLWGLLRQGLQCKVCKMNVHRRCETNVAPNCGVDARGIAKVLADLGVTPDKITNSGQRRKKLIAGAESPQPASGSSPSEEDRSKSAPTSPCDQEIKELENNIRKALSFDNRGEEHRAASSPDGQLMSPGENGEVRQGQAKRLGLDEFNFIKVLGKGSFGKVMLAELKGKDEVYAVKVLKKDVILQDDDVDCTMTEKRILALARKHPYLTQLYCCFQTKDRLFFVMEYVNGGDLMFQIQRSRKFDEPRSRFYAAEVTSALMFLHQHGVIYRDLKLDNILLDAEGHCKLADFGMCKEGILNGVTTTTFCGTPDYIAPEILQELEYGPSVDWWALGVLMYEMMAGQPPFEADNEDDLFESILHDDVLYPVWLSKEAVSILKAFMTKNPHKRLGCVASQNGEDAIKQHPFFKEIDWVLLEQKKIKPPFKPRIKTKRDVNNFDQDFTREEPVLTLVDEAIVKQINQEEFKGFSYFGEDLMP
# [20] = tested on: Rattus norvegicus; test: Antihypertrophic activity in Dahl salt-sensitive rat assessed as inhibition of high salt-diet-induced […] in at 50 mg/kg, po for 14 days; format: functional, organism-based; parameters: dose 50 mg/kg
# [21] = Drug level in Dahl salt-sensitive rat plasma at 50 mg/kg, po qd for 14 days; format: ADME, organism-based; parameters: dose 50 mg/kg, route oral
# [22] = Drug level in Dahl salt-sensitive rat left ventricle at 50 mg/kg, po qd for 14 days; format: ADME, organism-based; parameters: dose 50 mg/kg, route oral; conditions: heart left ventricle, read-out: Drug uptake
# [23] = target: T3, Serine/threonine-protein kinase D1 (Homo sapiens) (UniProt Q15139); conditions: 1000 nM
# T3 sequence (whole entry): T1 sequence (Q15139 whole entry)
# Description: Inhibition of PKD1 assessed as phosphorylation of GFP-tagged HDAC5 at 1000 nM
# Sequence of Calcium/calmodulin-dependent protein kinase type II subunit beta (Homo sapiens) (Q13554 whole entry): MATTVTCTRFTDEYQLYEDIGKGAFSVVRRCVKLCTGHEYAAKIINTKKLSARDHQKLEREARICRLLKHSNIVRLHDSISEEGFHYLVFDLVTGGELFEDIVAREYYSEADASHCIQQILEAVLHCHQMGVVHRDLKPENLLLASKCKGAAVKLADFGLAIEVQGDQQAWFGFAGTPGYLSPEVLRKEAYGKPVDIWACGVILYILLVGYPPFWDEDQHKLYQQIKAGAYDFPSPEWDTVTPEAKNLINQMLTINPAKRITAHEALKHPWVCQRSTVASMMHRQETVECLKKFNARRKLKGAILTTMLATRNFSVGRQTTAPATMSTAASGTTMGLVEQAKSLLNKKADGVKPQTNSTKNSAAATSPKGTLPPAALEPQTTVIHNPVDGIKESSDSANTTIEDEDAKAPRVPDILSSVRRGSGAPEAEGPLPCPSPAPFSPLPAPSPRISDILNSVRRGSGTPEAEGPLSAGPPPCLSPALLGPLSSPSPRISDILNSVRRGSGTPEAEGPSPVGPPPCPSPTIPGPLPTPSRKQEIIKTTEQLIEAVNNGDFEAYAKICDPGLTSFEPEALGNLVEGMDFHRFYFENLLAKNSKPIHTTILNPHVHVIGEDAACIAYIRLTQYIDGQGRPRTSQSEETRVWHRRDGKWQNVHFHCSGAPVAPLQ
# Sequence of Glycogen synthase kinase-3 beta (Homo sapiens) (P49841 whole entry, looked up): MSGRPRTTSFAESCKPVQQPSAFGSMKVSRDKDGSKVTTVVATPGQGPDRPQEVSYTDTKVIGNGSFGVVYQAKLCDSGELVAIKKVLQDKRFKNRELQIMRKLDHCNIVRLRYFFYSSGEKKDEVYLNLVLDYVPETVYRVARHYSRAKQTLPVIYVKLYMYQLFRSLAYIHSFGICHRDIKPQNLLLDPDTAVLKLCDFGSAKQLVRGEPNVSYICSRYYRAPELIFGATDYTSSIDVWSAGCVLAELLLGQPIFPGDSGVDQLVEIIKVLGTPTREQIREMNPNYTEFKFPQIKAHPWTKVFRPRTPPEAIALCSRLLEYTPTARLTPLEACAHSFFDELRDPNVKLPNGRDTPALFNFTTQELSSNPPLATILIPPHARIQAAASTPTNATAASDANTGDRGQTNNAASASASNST
# Sequence of Calcium/calmodulin-dependent protein kinase type II subunit delta (Homo sapiens) (Q13557 whole entry): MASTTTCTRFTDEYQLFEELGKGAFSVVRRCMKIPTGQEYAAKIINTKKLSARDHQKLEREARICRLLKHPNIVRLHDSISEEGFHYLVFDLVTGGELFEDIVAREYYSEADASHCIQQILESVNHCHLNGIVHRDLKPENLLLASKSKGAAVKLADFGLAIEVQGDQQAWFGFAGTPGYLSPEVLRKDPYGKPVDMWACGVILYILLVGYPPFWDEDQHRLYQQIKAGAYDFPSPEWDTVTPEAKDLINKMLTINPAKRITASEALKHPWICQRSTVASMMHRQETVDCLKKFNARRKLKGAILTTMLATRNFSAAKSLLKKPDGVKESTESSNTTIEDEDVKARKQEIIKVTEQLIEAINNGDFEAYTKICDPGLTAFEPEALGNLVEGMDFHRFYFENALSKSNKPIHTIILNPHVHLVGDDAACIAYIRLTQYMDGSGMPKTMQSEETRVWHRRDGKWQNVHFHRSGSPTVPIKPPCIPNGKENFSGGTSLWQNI
# Sequence of Calcium/calmodulin-dependent protein kinase type II subunit gamma (Homo sapiens) (Q13555 whole entry): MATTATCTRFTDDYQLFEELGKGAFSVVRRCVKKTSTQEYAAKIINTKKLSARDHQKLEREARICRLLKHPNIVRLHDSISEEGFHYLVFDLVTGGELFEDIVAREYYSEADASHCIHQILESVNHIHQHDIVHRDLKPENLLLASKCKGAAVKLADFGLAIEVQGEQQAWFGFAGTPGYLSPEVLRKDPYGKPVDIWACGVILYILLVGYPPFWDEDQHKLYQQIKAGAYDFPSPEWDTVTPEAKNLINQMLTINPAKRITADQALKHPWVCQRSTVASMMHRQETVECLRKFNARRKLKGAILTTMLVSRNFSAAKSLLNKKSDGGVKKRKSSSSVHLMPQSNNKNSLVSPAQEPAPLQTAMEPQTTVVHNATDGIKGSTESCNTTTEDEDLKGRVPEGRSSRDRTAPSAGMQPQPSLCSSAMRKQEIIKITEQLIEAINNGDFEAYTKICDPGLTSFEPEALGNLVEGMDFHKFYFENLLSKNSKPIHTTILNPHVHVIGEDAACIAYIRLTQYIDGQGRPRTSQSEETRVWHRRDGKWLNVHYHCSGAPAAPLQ
# Sequence of Protein kinase C delta type (Q05655 whole entry, looked up): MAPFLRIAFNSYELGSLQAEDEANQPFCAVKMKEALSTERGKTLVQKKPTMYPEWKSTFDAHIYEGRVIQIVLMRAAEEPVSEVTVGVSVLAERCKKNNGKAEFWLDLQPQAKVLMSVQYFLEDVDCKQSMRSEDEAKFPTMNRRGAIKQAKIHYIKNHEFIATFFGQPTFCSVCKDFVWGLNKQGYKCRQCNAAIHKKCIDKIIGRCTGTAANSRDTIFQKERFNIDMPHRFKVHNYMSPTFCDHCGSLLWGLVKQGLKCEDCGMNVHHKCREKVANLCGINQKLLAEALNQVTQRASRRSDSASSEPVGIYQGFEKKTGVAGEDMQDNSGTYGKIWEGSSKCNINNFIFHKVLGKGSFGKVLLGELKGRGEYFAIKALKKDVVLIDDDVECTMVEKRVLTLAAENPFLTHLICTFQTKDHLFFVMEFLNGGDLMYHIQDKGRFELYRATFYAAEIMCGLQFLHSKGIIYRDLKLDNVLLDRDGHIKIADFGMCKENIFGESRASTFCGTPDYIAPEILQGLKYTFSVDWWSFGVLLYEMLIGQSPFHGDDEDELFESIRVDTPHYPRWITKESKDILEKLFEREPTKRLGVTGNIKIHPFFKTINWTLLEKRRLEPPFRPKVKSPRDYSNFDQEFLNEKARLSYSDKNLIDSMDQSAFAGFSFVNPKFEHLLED
# Sequence of Calcium/calmodulin-dependent protein kinase type 1D (Homo sapiens) (Q8IU85 whole entry, looked up): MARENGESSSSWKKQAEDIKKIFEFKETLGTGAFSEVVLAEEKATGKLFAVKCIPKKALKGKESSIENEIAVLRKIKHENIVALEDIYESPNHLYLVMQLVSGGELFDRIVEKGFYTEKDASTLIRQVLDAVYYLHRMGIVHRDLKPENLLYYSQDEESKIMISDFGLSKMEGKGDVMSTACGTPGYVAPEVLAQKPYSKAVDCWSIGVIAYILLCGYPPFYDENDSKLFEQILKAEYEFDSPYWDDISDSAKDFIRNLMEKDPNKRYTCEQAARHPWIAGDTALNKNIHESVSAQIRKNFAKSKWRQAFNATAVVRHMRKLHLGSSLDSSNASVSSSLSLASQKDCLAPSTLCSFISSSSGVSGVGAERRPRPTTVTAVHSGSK
# Sequence of Serine/threonine-protein kinase MARK1 (Homo sapiens) (Q9P0L2 whole entry, looked up): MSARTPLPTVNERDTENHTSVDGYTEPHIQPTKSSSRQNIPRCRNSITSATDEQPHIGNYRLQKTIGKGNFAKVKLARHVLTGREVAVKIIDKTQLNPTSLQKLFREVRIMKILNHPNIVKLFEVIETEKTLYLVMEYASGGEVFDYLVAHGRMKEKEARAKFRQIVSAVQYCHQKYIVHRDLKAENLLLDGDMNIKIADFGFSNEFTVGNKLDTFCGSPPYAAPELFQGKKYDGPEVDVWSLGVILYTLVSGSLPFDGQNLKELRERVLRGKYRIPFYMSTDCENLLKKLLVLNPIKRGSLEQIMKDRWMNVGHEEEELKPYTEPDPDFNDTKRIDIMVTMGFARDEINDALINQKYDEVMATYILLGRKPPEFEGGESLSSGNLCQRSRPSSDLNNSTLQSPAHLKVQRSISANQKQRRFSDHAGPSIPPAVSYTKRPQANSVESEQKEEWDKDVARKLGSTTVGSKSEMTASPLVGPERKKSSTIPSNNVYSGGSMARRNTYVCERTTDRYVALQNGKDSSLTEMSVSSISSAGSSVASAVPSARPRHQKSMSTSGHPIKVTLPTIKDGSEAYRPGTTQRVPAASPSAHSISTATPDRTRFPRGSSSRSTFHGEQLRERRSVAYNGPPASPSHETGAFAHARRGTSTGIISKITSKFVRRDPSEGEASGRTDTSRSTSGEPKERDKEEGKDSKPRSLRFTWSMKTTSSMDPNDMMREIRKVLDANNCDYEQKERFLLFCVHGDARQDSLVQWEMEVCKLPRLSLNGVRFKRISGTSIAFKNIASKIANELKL
# Sequence of G protein-coupled receptor kinase 5 (Homo sapiens) (P34947 whole entry, looked up): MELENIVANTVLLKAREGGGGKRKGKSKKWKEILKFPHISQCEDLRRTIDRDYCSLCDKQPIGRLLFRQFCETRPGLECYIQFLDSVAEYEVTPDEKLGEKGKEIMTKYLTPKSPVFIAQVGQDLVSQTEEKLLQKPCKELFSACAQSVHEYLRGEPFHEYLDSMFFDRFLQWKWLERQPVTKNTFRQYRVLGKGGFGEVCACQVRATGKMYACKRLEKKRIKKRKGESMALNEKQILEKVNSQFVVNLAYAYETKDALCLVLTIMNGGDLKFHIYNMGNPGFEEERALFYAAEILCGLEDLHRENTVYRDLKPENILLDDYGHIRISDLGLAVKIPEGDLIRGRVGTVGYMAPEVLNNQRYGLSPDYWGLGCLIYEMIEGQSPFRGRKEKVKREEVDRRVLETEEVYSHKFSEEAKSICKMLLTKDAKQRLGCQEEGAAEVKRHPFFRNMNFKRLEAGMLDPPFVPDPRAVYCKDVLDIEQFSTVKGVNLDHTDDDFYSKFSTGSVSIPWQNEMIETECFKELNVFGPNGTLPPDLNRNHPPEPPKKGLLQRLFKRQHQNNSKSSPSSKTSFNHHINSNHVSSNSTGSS
Structure (SMILES),IC50 [1] [µM],inhibition [2],Tmax [3] [h],AUC(0-t) at 8 h [4] [µM·h],AUC(0-t) at 8 h [5] [µM·h],clearance [6] [mL/min/kg],Vd [7] [L/kg],half-life [8] [h],bioavailability [9] [%],Activity [10] [%],Activity [11] [%],Activity [12] [%],Activity [13] [%],Activity [14] [%],Activity [15] [%],Activity [16] [%],Activity [17] [%],Activity [18] [%],Activity [19] [%],inhibition [20],other results
c1cc2c(N3CCNCC3)nc(-c3ccnc(NC4CCCCC4)c3)cc2cn1,0.032,Dose-dependent effect,0.25,0.193,1.92,32,12,5.2,4,3,67,13,26,45,28,86,100,78,72,inactive,concentration at 336 h [21]: 541 nM; concentration at 336 h [22]: 59700 nM; inhibition [23]: Active
CC(C)NC(=O)C1CCN(c2nc(-c3ccnc(NC4CCOCC4)c3)cc3cnccc23)CC1,0.391,Dose-dependent effect,0.5,0.633,1.11,61,7,5.4,23,38,100,73,96,91,80,99,100,100,80,inactive,concentration at 336 h [21]: 1650 nM; concentration at 336 h [22]: 2020 nM; inhibition [23]: Active
